Measurements taken from PMC10362908 (2023).

What was measured:
Settings in all cases: Na+ 10 mM; Mg2+ carried over from 12 mM annealing buffer; 5 mM TRIS pH 7.0, 20 °C; 0.5 µM DNA, 160 µM PIC; super aggregate
[1] = test system: ssDNA (DNA, single strand) TGCAAGGTCCGCGAGGTGTAC; experiment: fluorescence emission (523 nm excitation), aggregate formation
[2] = test system: GC (DX-tile) (DNA, junction) TCAGAAGAACGCGCGCGCGC/ACGCATTTGTCGTTCTTCTGATGACCTTGCA/GTACACCTCGAGCGCGCGCGCTTGTCTGCAA/TTGCAGACAAGACAAATGCGT/TGCAAGGTCCGCGAGGTGTAC; experiment: as above
[3] = test system: dsDNA (DNA, duplex) TGCAAGGTCCGCGAGGTGTAC/GTACACCTCGCGGACCTTGCA; experiment: as above
[4] = test system: GC + AF (DX-tile) (DNA, junction, amino modifier C6 dT at 19 of strand 5) TCAGAAGAACGCGCGCGCGC/ACGCATTTGTCGTTCTTCTGATGACCTTGCA/GTACACCTCGAGCGCGCGCGCTTGTCTGCAA/TTGCAGACAAGACAAATGCGT/TGCAAGGTCCGCGAGGTGTAC; experiment: absorbance (580 nm aggregate peak, AF red shift)
[5] = test system: ssDNA + AF (Strand 5-AF) (DNA, single strand, amino modifier C6 dT at 19) TGCAAGGTCCGCGAGGTGTAC; experiment: absorbance (580 nm aggregate peak, AF red shift)
[6] = test system: AT (DX-tile) (DNA, junction) TCAGAAGAACAAAAAAAAAA/ACGCATTTGTCGTTCTTCTGATGACCTTGCA/GTACACCTCGCTTTTTTTTTTGTGTCTGCAA/TTGCAGACACGACAAATGCGT/TGCAAGGTCCGCGAGGTGTAC; experiment: fluorescence emission (523 nm excitation), aggregate formation
[7] = test system: dsDNA + AF (DNA, duplex, amino modifier C6 dT at 19 of strand 1) TGCAAGGTCCGCGAGGTGTAC/GTACACCTCGCGGACCTTGCA; experiment: absorbance (580 nm aggregate peak, AF red shift)
[8] = test system: AT + AF (DX-tile) (DNA, junction, amino modifier C6 dT at 19 of strand 5) TCAGAAGAACAAAAAAAAAA/ACGCATTTGTCGTTCTTCTGATGACCTTGCA/GTACACCTCGCTTTTTTTTTTGTGTCTGCAA/TTGCAGACACGACAAATGCGT/TGCAAGGTCCGCGAGGTGTAC; experiment: absorbance (580 nm aggregate peak, AF red shift)

Measured: binding

CCN1C(=Cc2ccc3ccccc3[n+]2CC)C=Cc2ccccc21
yes: [1] | [2] | [3] | [4] | [5] | [6] | [7] | [8]
